# Residues, ends and D or L forms follow the SMILES beside them.
# What was measured:
# [1] = tested on: Human immunodeficiency virus 1; assay: Thermal stability of HIV1 envelope glycoprotein gp41 His-tagged N-terminal heptad repeat N54-drug complex assessed as thermal unfolding transition state by measuring molar ellipticity at 4 to 90 degC by circular dichroic spectra analysis
# [2] = tested on: Human immunodeficiency virus 1; assay: Binding affinity to HIV1 His-tagged N-terminal heptad repeat of envelope glycoprotein gp41 assessed as recovery of N54-drug complex after 2 hrs by LC-MS analysis; parameters: concentration or dose not given beside the values
# [3] = tested on: Human immunodeficiency virus 1; assay: Antiviral activity against HIV1 NL4-3 harboring gp41 D36G mutant infected in human HeLa cells expressing CD4-LTR-beta-gal assessed as inhibition of viral replication after 48 hrs by MAGI assay; type: functional, organism-based
Structure (SMILES),Tm [1] [°C],Activity [2] [%],EC50 [3] [nM]
CC[C@H](C)[C@H](NC(=O)[C@H](CC(C)C)NC(=O)[C@H](CCC(=O)O)NC(=O)[C@H](CCC(=O)O)NC(=O)[C@@H](NC(=O)[C@H](CC(C)C)NC(=O)[C@H](CO)NC(=O)[C@@H](NC(=O)[C@H](Cc1ccc(O)cc1)NC(C)=O)[C@@H](C)O)[C@@H](C)CC)C(=O)N[C@@H](CCCCN)C(=O)N[C@@H](CCCCN)C(=O)N[C@@H](Cc1ccccc1)C(=O)N[C@@H](CCC(=O)O)C(=O)N[C@@H](CCC(=O)O)C(=O)N[C@@H](CCC(N)=O)C(=O)N[C@@H](CCC(N)=O)C(=O)N[C@@H](CCCCN)C(=O)N[C@@H](CCCCN)C(=O)N[C@@H](CC(N)=O)C(=O)N[C@@H](CCC(=O)O)C(=O)N[C@@H](CCC(=O)O)C(=O)N[C@@H](CCC(=O)O)C(=O)N[C@@H](CC(C)C)C(=O)N[C@@H](CCCCN)C(=O)N[C@@H](CCCCN)C(=O)N[C@@H](CC(C)C)C(=O)N[C@@H](CCC(=O)O)C(=O)N[C@@H](CCC(=O)O)C(=O)N[C@@H](Cc1c[nH]c2ccccc12)C(=O)N[C@@H](C)C(=O)N[C@@H](CCCCN)C(=O)N[C@@H](CCCCN)C(=O)N[C@@H](Cc1c[nH]c2ccccc12)C(=O)N[C@@H](CC(N)=O)C(=O)N[C@@H](Cc1c[nH]c2ccccc12)C(=O)N[C@@H](Cc1ccccc1)C(N)=O (Ac-YTSLIEELIKKFEEQQKKNEEELKKLEEWAKKWNWF-NH2),64.6,5.8,2.8
CC[C@H](C)[C@H](NC(=O)[C@H](CC(C)C)NC(=O)[C@H](CCC(=O)O)NC(=O)[C@H](CCC(=O)O)NC(=O)[C@@H](NC(=O)[C@H](CC(C)C)NC(=O)[C@H](CO)NC(=O)[C@@H](NC(=O)[C@H](Cc1ccc(O)cc1)NC(C)=O)[C@@H](C)O)[C@@H](C)CC)C(=O)N[C@@H](CCCCN)C(=O)N[C@@H](CCCCN)C(=O)N[C@@H](Cc1ccc(O)cc1)C(=O)N[C@@H](CCC(=O)O)C(=O)N[C@@H](CCC(=O)O)C(=O)N[C@@H](CCC(N)=O)C(=O)N[C@@H](CCC(N)=O)C(=O)N[C@@H](CCCCN)C(=O)N[C@@H](CCCCN)C(=O)N[C@@H](CC(N)=O)C(=O)N[C@@H](CCC(=O)O)C(=O)N[C@@H](CCC(=O)O)C(=O)N[C@@H](CCC(=O)O)C(=O)N[C@@H](CC(C)C)C(=O)N[C@@H](CCCCN)C(=O)N[C@@H](CCCCN)C(=O)N[C@@H](CC(C)C)C(=O)N[C@@H](CCC(=O)O)C(=O)N[C@@H](CCC(=O)O)C(=O)N[C@@H](Cc1c[nH]c2ccccc12)C(=O)N[C@@H](C)C(=O)N[C@@H](CCCCN)C(=O)N[C@@H](CCCCN)C(=O)N[C@@H](Cc1c[nH]c2ccccc12)C(=O)N[C@@H](CC(N)=O)C(=O)N[C@@H](Cc1c[nH]c2ccccc12)C(=O)N[C@@H](Cc1ccccc1)C(N)=O (Ac-YTSLIEELIKKYEEQQKKNEEELKKLEEWAKKWNWF-NH2),61.1,4.7,5
CC[C@H](C)[C@H](NC(=O)[C@H](CC(C)C)NC(=O)[C@H](CCC(=O)O)NC(=O)[C@H](CCC(=O)O)NC(=O)[C@@H](NC(=O)[C@H](CC(C)C)NC(=O)[C@H](CO)NC(=O)[C@@H](NC(=O)[C@H](Cc1ccc(O)cc1)NC(C)=O)[C@@H](C)O)[C@@H](C)CC)C(=O)N[C@@H](CCCCN)C(=O)N[C@@H](CCCCN)C(=O)N[C@@H](CC(=O)O)C(=O)N[C@@H](CCC(=O)O)C(=O)N[C@@H](CCC(=O)O)C(=O)N[C@@H](CCC(N)=O)C(=O)N[C@@H](CCC(N)=O)C(=O)N[C@@H](CCCCN)C(=O)N[C@@H](CCCCN)C(=O)N[C@@H](CC(N)=O)C(=O)N[C@@H](CCC(=O)O)C(=O)N[C@@H](CCC(=O)O)C(=O)N[C@@H](CCC(=O)O)C(=O)N[C@@H](CC(C)C)C(=O)N[C@@H](CCCCN)C(=O)N[C@@H](CCCCN)C(=O)N[C@@H](CC(C)C)C(=O)N[C@@H](CCC(=O)O)C(=O)N[C@@H](CCC(=O)O)C(=O)N[C@@H](Cc1c[nH]c2ccccc12)C(=O)N[C@@H](C)C(=O)N[C@@H](CCCCN)C(=O)N[C@@H](CCCCN)C(=O)N[C@@H](Cc1c[nH]c2ccccc12)C(=O)N[C@@H](CC(N)=O)C(=O)N[C@@H](Cc1c[nH]c2ccccc12)C(=O)N[C@@H](Cc1ccccc1)C(N)=O (Ac-YTSLIEELIKKDEEQQKKNEEELKKLEEWAKKWNWF-NH2),56.5,1.5,330
CC[C@H](C)[C@H](NC(=O)[C@H](CC(C)C)NC(=O)[C@H](CCC(=O)O)NC(=O)[C@H](CCC(=O)O)NC(=O)[C@@H](NC(=O)[C@H](CC(C)C)NC(=O)[C@H](CO)NC(=O)[C@@H](NC(=O)[C@H](Cc1ccc(O)cc1)NC(C)=O)[C@@H](C)O)[C@@H](C)CC)C(=O)N[C@@H](CCCCN)C(=O)N[C@@H](CCCCN)C(=O)N[C@@H](CCC(N)=O)C(=O)N[C@@H](CCC(=O)O)C(=O)N[C@@H](CCC(=O)O)C(=O)N[C@@H](CCC(N)=O)C(=O)N[C@@H](CCC(N)=O)C(=O)N[C@@H](CCCCN)C(=O)N[C@@H](CCCCN)C(=O)N[C@@H](CC(N)=O)C(=O)N[C@@H](CCC(=O)O)C(=O)N[C@@H](CCC(=O)O)C(=O)N[C@@H](CCC(=O)O)C(=O)N[C@@H](CC(C)C)C(=O)N[C@@H](CCCCN)C(=O)N[C@@H](CCCCN)C(=O)N[C@@H](CC(C)C)C(=O)N[C@@H](CCC(=O)O)C(=O)N[C@@H](CCC(=O)O)C(=O)N[C@@H](Cc1c[nH]c2ccccc12)C(=O)N[C@@H](C)C(=O)N[C@@H](CCCCN)C(=O)N[C@@H](CCCCN)C(=O)N[C@@H](Cc1c[nH]c2ccccc12)C(=O)N[C@@H](CC(N)=O)C(=O)N[C@@H](Cc1c[nH]c2ccccc12)C(=O)N[C@@H](Cc1ccccc1)C(N)=O (Ac-YTSLIEELIKKQEEQQKKNEEELKKLEEWAKKWNWF-NH2),60,2.2,7.9
CC[C@H](C)[C@H](NC(=O)[C@H](CC(C)C)NC(=O)[C@H](CCC(=O)O)NC(=O)[C@H](CCC(=O)O)NC(=O)[C@@H](NC(=O)[C@H](CC(C)C)NC(=O)[C@H](CO)NC(=O)[C@@H](NC(=O)[C@H](Cc1ccc(O)cc1)NC(C)=O)[C@@H](C)O)[C@@H](C)CC)C(=O)N[C@@H](CCCCN)C(=O)N[C@@H](CCCCN)C(=O)N[C@@H](CO)C(=O)N[C@@H](CCC(=O)O)C(=O)N[C@@H](CCC(=O)O)C(=O)N[C@H](C(=O)N[C@@H](CCC(N)=O)C(=O)N[C@@H](CCCCN)C(=O)N[C@@H](CCCCN)C(=O)N[C@@H](CC(N)=O)C(=O)N[C@@H](CCC(=O)O)C(=O)N[C@@H](CCC(=O)O)C(=O)N[C@@H](CCC(=O)O)C(=O)N[C@@H](CC(C)C)C(=O)N[C@@H](CCCCN)C(=O)N[C@@H](CCCCN)C(=O)N[C@@H](CC(C)C)C(=O)N[C@@H](CCC(=O)O)C(=O)N[C@@H](CCC(=O)O)C(=O)N[C@@H](Cc1c[nH]c2ccccc12)C(=O)N[C@@H](C)C(=O)N[C@@H](CCCCN)C(=O)N[C@@H](CCCCN)C(=O)N[C@@H](Cc1c[nH]c2ccccc12)C(=O)N[C@@H](CC(N)=O)C(=O)N[C@@H](Cc1c[nH]c2ccccc12)C(=O)N[C@@H](Cc1ccccc1)C(N)=O)C(C)C (Ac-YTSLIEELIKKSEEVQKKNEEELKKLEEWAKKWNWF-NH2),70.5,6.1,2.9
CC[C@H](C)[C@H](NC(=O)[C@H](CC(C)C)NC(=O)[C@H](CCC(=O)O)NC(=O)[C@H](CCC(=O)O)NC(=O)[C@@H](NC(=O)[C@H](CC(C)C)NC(=O)[C@H](CO)NC(=O)[C@@H](NC(=O)[C@H](Cc1ccc(O)cc1)NC(C)=O)[C@@H](C)O)[C@@H](C)CC)C(=O)N[C@@H](CCCCN)C(=O)N[C@@H](CCCCN)C(=O)N[C@@H](CO)C(=O)N[C@@H](CCC(=O)O)C(=O)N[C@@H](CCC(=O)O)C(=O)N[C@@H](Cc1c[nH]c2ccccc12)C(=O)N[C@@H](CCC(N)=O)C(=O)N[C@@H](CCCCN)C(=O)N[C@@H](CCCCN)C(=O)N[C@@H](CC(N)=O)C(=O)N[C@@H](CCC(=O)O)C(=O)N[C@@H](CCC(=O)O)C(=O)N[C@@H](CCC(=O)O)C(=O)N[C@@H](CC(C)C)C(=O)N[C@@H](CCCCN)C(=O)N[C@@H](CCCCN)C(=O)N[C@@H](CC(C)C)C(=O)N[C@@H](CCC(=O)O)C(=O)N[C@@H](CCC(=O)O)C(=O)N[C@@H](Cc1c[nH]c2ccccc12)C(=O)N[C@@H](C)C(=O)N[C@@H](CCCCN)C(=O)N[C@@H](CCCCN)C(=O)N[C@@H](Cc1c[nH]c2ccccc12)C(=O)N[C@@H](CC(N)=O)C(=O)N[C@@H](Cc1c[nH]c2ccccc12)C(=O)N[C@@H](Cc1ccccc1)C(N)=O (Ac-YTSLIEELIKKSEEWQKKNEEELKKLEEWAKKWNWF-NH2),68.8,8.1,2.5
CC[C@H](C)[C@H](NC(=O)[C@H](CC(C)C)NC(=O)[C@H](CCC(=O)O)NC(=O)[C@H](CCC(=O)O)NC(=O)[C@@H](NC(=O)[C@H](CC(C)C)NC(=O)[C@H](CO)NC(=O)[C@@H](NC(=O)[C@H](Cc1ccc(O)cc1)NC(C)=O)[C@@H](C)O)[C@@H](C)CC)C(=O)N[C@@H](CCCCN)C(=O)N[C@@H](CCCCN)C(=O)N[C@@H](CO)C(=O)N[C@@H](CCC(=O)O)C(=O)N[C@@H](CCC(=O)O)C(=O)N[C@@H](CC(N)=O)C(=O)N[C@@H](CCC(N)=O)C(=O)N[C@@H](CCCCN)C(=O)N[C@@H](CCCCN)C(=O)N[C@@H](CC(N)=O)C(=O)N[C@@H](CCC(=O)O)C(=O)N[C@@H](CCC(=O)O)C(=O)N[C@@H](CCC(=O)O)C(=O)N[C@@H](CC(C)C)C(=O)N[C@@H](CCCCN)C(=O)N[C@@H](CCCCN)C(=O)N[C@@H](CC(C)C)C(=O)N[C@@H](CCC(=O)O)C(=O)N[C@@H](CCC(=O)O)C(=O)N[C@@H](Cc1c[nH]c2ccccc12)C(=O)N[C@@H](C)C(=O)N[C@@H](CCCCN)C(=O)N[C@@H](CCCCN)C(=O)N[C@@H](Cc1c[nH]c2ccccc12)C(=O)N[C@@H](CC(N)=O)C(=O)N[C@@H](Cc1c[nH]c2ccccc12)C(=O)N[C@@H](Cc1ccccc1)C(N)=O (Ac-YTSLIEELIKKSEENQKKNEEELKKLEEWAKKWNWF-NH2),69,4.4,3.6
